Reference: patent US20240287138A1, “CYCLIC PEPTIDES FOR INHIBITING TNF RECEPTOR 1 ACTIVITY” (Merck Sharp & Dohme LLC, priority 2023, published 2024)
Numbered stars: 1 amine (or outer) side, 2 acyl side, 3 side chain; on linkers, the order of the positions; unused ones are H or OH. Bridge positions count the residues as written; N and C are the ends. Square brackets hold non-standard residues; d marks the D form. Peptide text beside a SMILES is read from it. Trp(βS-Me,7-OMe) = COc1cccc2c([C@H](C)[C@H](N)C(=O)O)c[nH]c12; Phe(4-NHCONH2) = NC(=O)Nc1ccc(C[C@H](N)C(=O)O)cc1; Trp(7-Cl) = N[C@@H](Cc1c[nH]c2c(Cl)cccc12)C(=O)O; X11 = O=C(O)C[C@@H]1C[C@H](C(=O)[*:2])N([*:1])C1; Phe(4-CONH2) = NC(=O)c1ccc(C[C@H](N)C(=O)O)cc1; Phe(4-COOH) = N[C@@H](Cc1ccc(C(=O)O)cc1)C(=O)O; Pip(5R-OH) = O=C(O)[C@@H]1CC[C@@H](O)CN1; X1 = O=C([C@@H]1CC[C@H](N[*:1])C1)[*:2]; Pip(4-aza) = O=C(O)[C@@H]1CNCCN1; 4Pal = N[C@@H](Cc1ccncc1)C(=O)O; NMeE = CN[C@@H](CCC(=O)O)C(=O)O; hLys = NCCCCC[C@H](N)C(=O)O; NMeS = CN[C@@H](CO)C(=O)O; αMeS = C[C@](N)(CO)C(=O)O; Nle = CCCC[C@H](N)C(=O)O; Sar = CNCC(=O)O

How the values were obtained:
[1] = target: T1, human TNFR2 ECD protein (Homo sapiens, UniProt P20333); test: SPR off-target binding (selectivity) to human TNFR2 ECD
T1 construct: HRV 3C protease cleavage site (C); 6His (C, cleaved yes); made in house; host or cells: Sf21 insect cells (baculovirus), secreted
T1 sequence (P20333 23-257): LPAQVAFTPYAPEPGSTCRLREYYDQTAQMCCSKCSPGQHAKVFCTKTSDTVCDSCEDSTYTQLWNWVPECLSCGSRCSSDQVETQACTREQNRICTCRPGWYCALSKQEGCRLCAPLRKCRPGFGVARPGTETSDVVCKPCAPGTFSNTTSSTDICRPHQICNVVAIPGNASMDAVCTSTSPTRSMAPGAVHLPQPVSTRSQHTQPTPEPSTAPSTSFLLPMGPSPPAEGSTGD
Outline: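 Biotinylated avi-tagged human TNFR1 or TNFR2 ECD, expressed in Sf21 insect cells, captured on streptavidin SPR chip; peptide analytes run in 10 mM HEPES pH 7.4, 150 mM NaCl, 3 mM EDTA, 0.05% P20, 2% DMSO. kon and koff measured, affinity KA calculated.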

[2] = target: T2, TNFα-induced NF-κB signal transduction pathway (TNFR1 signaling) in THP-1 cells (Homo sapiens, UniProt P19438); test: THP-1 Lucia NF-κB reporter cell assay, inhibition of TNFα-induced NF-κB signaling; type: cell-based; conditions: THP-1 NF-κB Lucia reporter cells, 10 ng/mL TNFα, 16-18 h, secreted luciferase; read-out: THP-1 IC50
T2 sequence (P19438 30-455): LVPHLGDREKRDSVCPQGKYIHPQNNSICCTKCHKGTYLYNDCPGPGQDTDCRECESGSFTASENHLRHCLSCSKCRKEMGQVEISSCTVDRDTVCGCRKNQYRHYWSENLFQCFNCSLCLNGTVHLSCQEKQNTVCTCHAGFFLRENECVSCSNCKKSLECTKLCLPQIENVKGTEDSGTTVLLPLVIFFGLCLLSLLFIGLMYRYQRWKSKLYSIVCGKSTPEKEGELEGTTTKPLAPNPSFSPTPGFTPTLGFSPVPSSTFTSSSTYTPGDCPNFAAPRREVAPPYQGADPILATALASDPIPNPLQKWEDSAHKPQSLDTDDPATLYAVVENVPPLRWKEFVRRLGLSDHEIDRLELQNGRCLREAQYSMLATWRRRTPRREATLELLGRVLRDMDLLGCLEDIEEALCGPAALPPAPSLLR
Outline: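 Macrocyclic peptides were preincubated 1 h at 37 °C with THP-1 NF-κB-Lucia reporter cells (20,000 cells/well) in antibiotic-free RPMI 1640/10% FBS, then stimulated with 10 ng/mL human TNFα overnight (16-18 h). Secreted luciferase in supernatant was read by luminescence; IC50 from 4-parameter logistic fits.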

[3] = target: T3, human TNFR1 extracellular domain (ECD) protein (Homo sapiens, UniProt P19438); test: SPR binding affinity to captured human TNFR1 ECD
T3 construct: HRV 3C protease cleavage site (C); 6His (C, cleaved yes); made in house; host or cells: Sf21 insect cells (baculovirus), secreted
T3 sequence (P19438 30-211): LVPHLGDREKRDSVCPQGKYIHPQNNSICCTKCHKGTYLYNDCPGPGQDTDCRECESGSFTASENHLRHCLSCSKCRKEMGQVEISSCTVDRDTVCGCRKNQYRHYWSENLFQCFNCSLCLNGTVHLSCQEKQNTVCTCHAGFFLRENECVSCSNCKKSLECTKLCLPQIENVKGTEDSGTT
Procedure: B. Procedure for Binding Affinity and Selectivity measured by SPR
Affinity and selectivity for hTNFR1 and TNFR2 was determined using SPR. Human TNFR1 or TNFR2 genes (extracellular domain only) were synthesized with a C-terminal Avi-tag, HRV 3C protease cleavage site followed by a 6His-tag for affinity purification. The final gene product was cloned into pBAC™-1 vector (Millipore Sigma) for expression testing in insect cells. Constructs were transfected into Sf21 cells for baculovirus generation followed by protein expression analysis in Sf21 and Tni cell lines. Large scale expression in Sf21 cells was performed using baculovirus infected insect cells (BIICs) infected at a MOI=2.0 grown for 72 h. Target proteins secreted into the media were harvested via centrifugation and concentrated using diafiltration. TNFR was purified by immobilized metal ion affinity chromatography (IMAC) using a Ni-Sepharose HisTrap™ column (Cytiva™). Isolated TNFR had His tag removed using HRV 3C protease followed by additional purification using Ni-NTA chromatography. Biotinylation was performed on Ni-NTA flow-through fractions concentrated to 45 μM and treated with BirA ligase (1:100, μg/μg ratio) in 50 mM Tris pH 7.5, 150 mM NaCl, 50 μM biotin, 10 mM magnesium acetate, 10 mM ATP at 4° C. for 20 h. Final purification of biotin-TNFR and buffer exchange into 20 mM HEPES pH 7.5, 150 mM NaCl was performed using a HiLoad® Superdex® 200 26/60 column (Cytiva™). Highly purified protein was aliquoted and stored at −80° C.
The SPR assay uses a Cytiva™ 8K or 8K+ biosensor instrument to measure the kinetics of peptide analytes binding to captured human TNFR1 extracellular domain (ECD) protein; peptide analytes are also evaluated for any off-target binding to human TNFR2 ECD protein in parallel. Recombinant human TNFR1 ECD and human TNFR2 ECD proteins, biotinylated via engineered C-terminal avi-tags, are immobilized to a regenerable streptavidin biosensor chip surface (Cytiva™ Biotin CAPture kit, Series S; cat. #28920234). Peptide analytes binding to immobilized human TNFR1 ECD protein and their subsequent dissociation are conducted in a buffer of 10 mM HEPES pH 7.4, 150 mM NaCl, 3 mM EDTA, 0.05% P20,2% DMSO under laminar flow conditions and measured in response units (RU), which are directly proportional to the accumulated mass on the surface of the biosensor chip; the biosensor chip surface is regenerated via Cytiva™ proprietary methods between the evaluation of each peptide analyte. […] The SPR assay determines the association and dissociation rate constants, kon and koff, for each peptide analyte and, from these values, calculates the binding affinity, […] reported in Table 2.

CCCC[C@@H]1NC(=O)CSC[C@@H](C(N)=O)NC(=O)[C@H]([C@@H](C)c2c[nH]c3c(OC)cccc23)NC(=O)CN(C)C(=O)[C@H](Cc2ccc(O)cc2)NC(=O)[C@H](Cc2ccc(C(=O)O)cc2)NC(=O)[C@](C)(CO)NC(=O)[C@H](Cc2c[nH]c3c(Cl)cccc23)NC(=O)[C@H](Cc2ccc(C(=O)O)cc2)NC(=O)[C@H](CC(N)=O)NC(=O)[C@H](CCC(=O)O)N(C)C(=O)[C@H](Cc2c[nH]c3ccccc23)NC(=O)[C@H](CO)N(C)C(=O)[C@H](Cc2ccc(C(N)=O)cc2)NC1=O [SEQ ID NO. 123] ({CH2CO}-[Nle][Phe(4-CONH2)][NMeS]W[NMeE]N[Phe(4-COOH)][Trp(7-Cl)][αMeS][Phe(4-COOH)]Y[Sar][Trp(βS-Me,7-OMe)]C-NH2; thioether N-14) showed a Kd [1] of over 1000 nM, an IC50 [2] of 4.1 nM and a Kd [3] of 0.32 nM.

Compound CCCC[C@@H]1NC(=O)[C@@H]2CC[C@@H](C2)NC(=O)[C@H]([C@@H](C)c2c[nH]c3c(OC)cccc23)NC(=O)CN(C)C(=O)[C@H](Cc2ccc(O)cc2)NC(=O)[C@H](Cc2ccc(NC(N)=O)cc2)NC(=O)[C@](C)(CO)NC(=O)[C@H](Cc2c[nH]c3c(Cl)cccc23)NC(=O)[C@H](Cc2ccncc2)NC(=O)[C@H](CC(N)=O)NC(=O)[C@H](CCC(=O)O)N(C)C(=O)[C@H](Cc2c[nH]c3ccccc23)NC(=O)[C@@H]2CNCCN2C(=O)[C@H](Cc2ccncc2)NC1=O [SEQ ID NO. 127] (cyclo([4Pal][Trp(7-Cl)][αMeS][Phe(4-NHCONH2)]Y[Sar][Trp(βS-Me,7-OMe)][X1][Nle][4Pal][Pip(4-aza)]W[NMeE]N)) has a Kd [1] of over 1000 nM, an IC50 [2] of 0.8 nM and a Kd [3] of 0.18 nM.

COc1cccc2c([C@H](C)[C@@H]3NC(=O)CN(C)C(=O)[C@H](Cc4ccc(O)cc4)NC(=O)[C@H](Cc4ccc(C(=O)O)cc4)NC(=O)[C@](C)(CO)NC(=O)[C@H](Cc4c[nH]c5c(Cl)cccc45)NC(=O)[C@H](Cc4ccncc4)NC(=O)[C@H](CC(N)=O)NC(=O)[C@H](CCC(=O)O)N(C)C(=O)[C@H](Cc4c[nH]c5ccccc45)NC(=O)[C@@H]4CC[C@@H](O)CN4C(=O)[C@H](Cc4ccncc4)NC(=O)[C@H](CCCCCN)NC(=O)[C@@H]4CC[C@@H](C4)NC3=O)c[nH]c12 [SEQ ID NO. 131] (cyclo([4Pal][Trp(7-Cl)][αMeS][Phe(4-COOH)]Y[Sar][Trp(βS-Me,7-OMe)][X1][hLys][4Pal][Pip(5R-OH)]W[NMeE]N)) showed a Kd [1] of over 1000 nM, an IC50 [2] of 0.7 nM and a Kd [3] of 0.06 nM.

CCCC[C@@H]1NC(=O)[C@@H]2CC[C@@H](C2)NC(=O)[C@H]([C@@H](C)c2c[nH]c3c(OC)cccc23)NC(=O)CN(C)C(=O)[C@H](Cc2ccc(C(=O)O)cc2)NC(=O)[C@H](Cc2ccc(C(N)=O)cc2)NC(=O)[C@](C)(CO)NC(=O)[C@H](Cc2c[nH]c3c(Cl)cccc23)NC(=O)[C@H](Cc2ccc(C(=O)O)cc2)NC(=O)[C@H](CC(N)=O)NC(=O)[C@H]2C[C@@H](CC(=O)O)CN2C(=O)[C@H](Cc2c[nH]c3ccccc23)NC(=O)[C@@H]2CC[C@@H](O)CN2C(=O)[C@H](Cc2ccncc2)NC1=O [SEQ ID NO. 132] (cyclo([4Pal][Pip(5R-OH)]W[X11]N[Phe(4-COOH)][Trp(7-Cl)][αMeS][Phe(4-CONH2)][Phe(4-COOH)][Sar][Trp(βS-Me,7-OMe)][X1][Nle])) showed a Kd [1] of over 1000 nM, an IC50 [2] of 0.7 nM and a Kd [3] of 0.08 nM.
